Data: paper PMC4490394 (Scientific Reports, 2015)
Numbering of substitutions follows the chain as printed. “And” between values parts separate entries of the source, which are not always exact repeats. Equal entries are not always repeated. Where two headings read alike, the source gives them in different places.

Experiments:
VCaP cells = assay: VCaP proliferation assay (WST-1); format: cell-based; conditions: Homo sapiens, 96 h
[1] = Brain penetrance, brain/plasma ratio from AUC0-24; format: in vivo; conditions: male, BALB/c or Balb/cOlaHsd nude, mouse, mice, single oral dose of 10 mg/kg, based on AUC0–24
[2] = Pharmacokinetic parameters in mice after 7 days oral dosing; format: in vivo; conditions: male, BALB/c or Balb/cOlaHsd nude, mouse, plasma, 20 mg/kg qd oral, read-out: AUC24
Description: Control mice received vehicle. […] Brain samples (without olfactory bulbs and medulla oblongata) from each group and time point were pooled and homogenized before the analysis. […] Plasma and brain concentration vs. time were evaluated by noncompartmental analysis using WinNonlin® Professional v. 5.2 software (Pharsight Corporation). Brain/plasma ratios were calculated based on AUC0–24 values for plasma and brain.

[3] = Body weight of mice bearing subcutaneous VCaP xenograft tumors; format: in vivo, castrated nude mice; conditions: enzalutamide 20 mg/kg qd oral, individual animals, vs BW before treatment
Description: BALB/c nude male mice (7 weeks old from Charles River, Germany) were subcutaneously injected with 2 million VCaP cells in 100 μL of RPMI-1640 medium and Matrigel (BD) (1:1). Tumor growth was monitored twice weekly by caliper measurements. The volume of the tumor was calculated according to the formula W^2 × L/2 (mm^3), where W is the shorter and L the longer diameter of the tumor. When the average tumor volume reached ~200 mm^3, mice were castrated or SHAM-operated under Avertin anesthesia. […] For all in vivo studies, Macrocol® (Merck) + propylene glycol +5% glucose (50:30:20, v/v/v) was used as a vehicle.

subcutaneous VCaP tumors = assay: Castration-resistant VCaP xenograft, tumor volume; format: in vivo, castrated nude mice
serum testosterone = assay: Serum testosterone in intact nude mice bearing orthotopic VCaP tumors; format: in vivo; conditions: 20 mg/kg qd oral, 3 weeks, p < 0.05 vs vehicle
Description: One million VCaP cells in 20 μL of RPMI-1640 medium were orthotopically injected into the dorsal prostate lobes of athymic nude male mice (7 weeks old from Harlan Winkelman, France). Tumor growth was followed by measuring serum PSA (ProStatus™ PSA EQM Kits, Wallac, Finland). […] At autopsy, blood samples were collected by heart puncture, clotted overnight at +4 °C, and centrifuged. For serum testosterone determination, 25-μL aliquots were extracted twice with 2 mL of diethyl ether and evaporated under nitrogen to dryness. The residues were reconstituted in PBS and measured using a standard radioimmunoassay as described previously.

AR(W741L) = molecular target: T1, AR(W741L) (Homo sapiens, UniProt P10275, W742L)
T1 sequence (P10275 1-920 W742L): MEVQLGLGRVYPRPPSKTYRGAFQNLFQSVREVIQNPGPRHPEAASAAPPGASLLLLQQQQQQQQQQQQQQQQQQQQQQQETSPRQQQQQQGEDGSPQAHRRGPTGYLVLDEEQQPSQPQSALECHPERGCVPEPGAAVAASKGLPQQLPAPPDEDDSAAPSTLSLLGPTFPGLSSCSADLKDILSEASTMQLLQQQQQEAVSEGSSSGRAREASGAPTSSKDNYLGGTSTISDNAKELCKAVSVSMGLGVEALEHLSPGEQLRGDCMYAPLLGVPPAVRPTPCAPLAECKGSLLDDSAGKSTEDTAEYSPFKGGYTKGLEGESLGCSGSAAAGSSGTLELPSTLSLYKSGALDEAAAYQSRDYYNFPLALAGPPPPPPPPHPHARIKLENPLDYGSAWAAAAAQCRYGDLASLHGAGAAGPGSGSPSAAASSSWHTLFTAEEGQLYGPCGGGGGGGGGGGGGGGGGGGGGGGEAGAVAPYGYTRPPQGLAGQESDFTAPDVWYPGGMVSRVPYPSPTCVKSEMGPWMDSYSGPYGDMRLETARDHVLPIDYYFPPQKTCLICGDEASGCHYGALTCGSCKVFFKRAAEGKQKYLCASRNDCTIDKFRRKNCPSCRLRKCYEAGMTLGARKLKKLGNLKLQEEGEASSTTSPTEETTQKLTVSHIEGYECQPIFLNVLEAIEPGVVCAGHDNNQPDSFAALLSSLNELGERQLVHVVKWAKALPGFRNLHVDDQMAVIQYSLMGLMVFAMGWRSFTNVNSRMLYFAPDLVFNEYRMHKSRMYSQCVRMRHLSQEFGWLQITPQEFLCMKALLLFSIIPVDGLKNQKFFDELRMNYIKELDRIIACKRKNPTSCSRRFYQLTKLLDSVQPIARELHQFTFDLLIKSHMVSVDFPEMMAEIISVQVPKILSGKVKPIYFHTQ

AR(F876L) = molecular target: T2, AR(F876L) (Homo sapiens, UniProt P10275, F877L)
T2 sequence (P10275 1-920 F877L): T1 sequence (P10275 1-920 W742L) with L742W, F877L

[4] = system: AR nuclear translocation in HS-HEK293 cells; conditions: 0.3 or 1.0 μM test compound with 0.3 nM testosterone, HS-HEK293 cells
AR(T877A) = molecular target: T3, AR(T877A) (Homo sapiens, UniProt P10275, T878A)
T3 sequence (P10275 1-920 T878A): T1 sequence (P10275 1-920 W742L) with L742W, T878A

[5] = parameters: method as in PMID 15470213; conditions: CRPC ref 7; cited from earlier work

CNC(=O)c1ccc(N2C(=S)N(c3cnc(C#N)c(C(F)(F)F)c3)C(=O)C23CCC3)cc1F [ARN-509, reference compound]
IC50 (VCaP cells; read-out: IC50, androgen-induced VCaP cell proliferation): 420 nM | Kp [1]: 0.62

CNC(=O)c1ccc(N2C(=S)N(c3ccc(C#N)c(C(F)(F)F)c3)C(=O)C2(C)C)cc1F [Enzalutamide, enzalutamide, reference compound]
AUC [2]: 479 µg·h/mL | Change in body weight (%) d 3 [3]: 0.0% (2×) and -6.2% and -2.7% and -0.6% and -0.5% and -2.0% and 1.3% and 0.5% | Change in body weight (%) d 9 [3]: 0.4% and 1.7% (2×) and 3.6% and 0.6% and 1.3% and 2.9% and 1.5% and 0.5% | Change in body weight (%) d 16 [3]: 1.8% (2×) and 1.2% and 3.0% and 2.6% and 6.8% and 5.6% and 5.5% and 8.7% | Change in body weight (%) d 23 [3]: 1.0% and -4.8% and -1.4% and 1.8% and -2.2% and -0.9% and -2.9% and -3.0% | Change in body weight (%) d 30 [3]: 2.1% and -4.0% and -2.7% and 3.0% and 0.9% and 1.9% and -2.0% and -0.9% | Change in body weight (%) d 37 [3]: 5.1% and -0.9% and 0.5% (2×) and 3.6% and 3.5% and 7.2% and 1.3% | antitumor activity (tumor volume) (subcutaneous VCaP tumors; 20 mg/kg oral once daily, 37 days, p < 0.05 vs castrated untreated mice): inhibition of tumor growth | effect on serum testosterone levels (serum testosterone): increased significantly

CC(=O)c1cc(C(=O)N[C@@H](C)Cn2ccc(-c3ccc(C#N)c(Cl)c3)n2)n[nH]1 [ORM-15341]
functional activity (agonist/antagonist) on AR(W741L) (AR(W741L)): full antagonists | functional activity (agonist/antagonist) on AR(F876L) (AR(F876L)): full antagonists | effect on testosterone-induced nuclear translocation of AR [4]: inhibit | IC50 (VCaP cells; 0.1 nM mibolerone, steroid-depleted medium, 4 days, WST-1, read-out: IC50, androgen-induced VCaP cell proliferation): 170 nM | functional activity (agonist/antagonist) on AR(T877A) (AR(T877A)): full antagonists

CC(O)(CS(=O)(=O)c1ccc(F)cc1)C(=O)Nc1ccc(C#N)c(C(F)(F)F)c1 (stereo not shown) [bicalutamide, reference compound]
antitumor activity (subcutaneous VCaP tumors; 20 mg/kg per os, data not shown): does not have any antitumor activity | effect on testosterone-induced nuclear translocation of AR [4]: failed to block

CC(=O)O[C@@]12CO[C@@H]1C[C@H](O)[C@@]1(C)C(=O)[C@H](O)C3=C(C)[C@@H](OC(=O)[C@H](O)[C@@H](NC(=O)OC(C)(C)C)c4ccccc4)C[C@@](O)([C@@H](OC(=O)c4ccccc4)[C@H]21)C3(C)C [docetaxel]
median prolongation of survival [5]: 2.9 months
